Assay results published in the supplement of paper PMC10307832.

Key:
Assay in all cases: relative viability (nuclei count vs DMSO), 5 days (fraction); higher = more cells survive
[1] = compound: CC[C@H](CO)Nc1nc(NCc2ccccc2)c2ncn(C(C)C)c2n1 [Seliciclib] + COc1cc2c(Oc3ccc(NC(=O)C4(C(=O)Nc5ccc(F)cc5)CC4)cc3F)ccnc2cc1OCCCN1CCOCC1 [Foretinib] (partner 0.25 µM)
Method in brief: (§1)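 Values are medians from duplicate plates. Each reflects relative viability, defined as the nuclei count of treated wells over that of vehicle wells. Lung cancer cell lines in 1536-well plates were pin-tool dosed one day after seeding with one drug alone or with a fixed anchor-drug dose plus five library-drug doses (not always all listed) in √10 steps, then fixed, stained and imaged at 4× after 5 days.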

[2] = compound: CC[C@H](CO)Nc1nc(NCc2ccccc2)c2ncn(C(C)C)c2n1 [Seliciclib] + CCNC(=O)c1noc(-c2cc(C(C)C)c(O)cc2O)c1-c1ccc(CN2CCOCC2)cc1 [Luminespib] (partner 0.01 µM)
Method in brief: as §1

[3] = compound: CC[C@H](CO)Nc1nc(NCc2ccccc2)c2ncn(C(C)C)c2n1 [Seliciclib] + Cc1cc(Nc2cc(N3CCN(C)CC3)nc(Sc3ccc(NC(=O)C4CC4)cc3)n2)n[nH]1 [Tozasertib] (partner 0.1 µM)
Method in brief: as §1

[4] = compound: CC[C@H](CO)Nc1nc(NCc2ccccc2)c2ncn(C(C)C)c2n1 [Seliciclib] + NC(=O)Nc1cc(-c2cccc(F)c2)sc1C(=O)N[C@H]1CCCNC1 [AZD7762] (partner 0.2 µM)
Method in brief: as §1

Row | Cell Line | relative viability ([1]; first compound 0.08 µM) | relative viability ([1]; first compound 0.253 µM) | relative viability ([1]; first compound 0.8 µM) | relative viability ([1]; first compound 2.53 µM) | relative viability ([1]; first compound 8 µM) | relative viability ([2]; first compound 0.08 µM) | relative viability ([2]; first compound 0.253 µM) | relative viability ([2]; first compound 0.8 µM) | relative viability ([2]; first compound 2.53 µM) | relative viability ([2]; first compound 8 µM) | relative viability ([3]; first compound 0.08 µM) | relative viability ([3]; first compound 0.253 µM) | relative viability ([3]; first compound 0.8 µM) | relative viability ([3]; first compound 2.53 µM) | relative viability ([3]; first compound 8 µM) | relative viability ([4]; first compound 0.08 µM) | relative viability ([4]; first compound 0.253 µM) | relative viability ([4]; first compound 0.8 µM) | relative viability ([4]; first compound 2.53 µM) | relative viability ([4]; first compound 8 µM)
1 | NCI-H1299 | 1.11 | 1.2 | 1.08 | 1.07 | 1.09 | – | – | – | – | – | – | – | – | – | – | – | – | – | – | –
2 | NCI-H1563 | 0.922 | 0.803 | 0.932 | 0.941 | 0.86 | 0.479 | 0.518 | 0.526 | 0.49 | 0.453 | – | – | – | – | – | – | – | – | – | –
3 | NCI-H1648 | – | – | – | – | – | – | – | – | – | – | 0.531 | 0.825 | 0.413 | 0.362 | 0.364 | 0.775 | 1.06 | 0.758 | 0.826 | 0.71
4 | NCI-H1650 | 0.984 | 1.1 | 0.956 | 1.35 | 0.981 | 0.195 | 0.185 | 0.216 | 0.199 | 0.193 | 0.387 | 0.437 | 0.364 | 0.422 | 0.318 | – | – | – | – | –
5 | NCI-H1703 | 0.352 | 0.362 | 0.323 | 0.298 | 0.342 | – | – | – | – | – | – | – | – | – | – | 0.132 | 0.147 | 0.135 | 0.126 | 0.111
6 | NCI-H1792 | – | – | – | – | – | 0.43 | 0.464 | 0.364 | – | 0.35 | – | – | – | – | – | 0.897 | 0.57 | 0.567 | – | 0.736
7 | NCI-H2009 | 1.21 | 1.24 | 1.22 | 1.18 | 1.27 | 0.998 | 1.13 | 1.07 | 1.01 | 0.943 | 0.767 | 0.742 | 0.809 | 0.69 | 0.635 | – | – | – | – | –
8 | NCI-H2023 | 0.752 | 0.664 | 0.865 | 0.909 | 0.833 | 0.681 | 0.832 | 0.703 | 0.569 | 0.421 | 0.393 | 0.357 | 0.337 | 0.36 | 0.22 | – | – | – | – | –
9 | NCI-H2228 | 0.931 | 0.826 | 0.727 | 0.856 | 0.591 | 0.157 | 0.155 | 0.14 | 0.185 | 0.149 | 0.313 | 0.318 | 0.267 | 0.241 | 0.178 | – | – | – | – | –
10 | SK-LU-1 | 0.832 | 0.785 | 0.83 | 0.914 | 0.654 | 0.204 | 0.209 | 0.207 | 0.187 | 0.21 | 0.33 | 0.383 | 0.354 | 0.314 | 0.326 | – | – | – | – | –
11 | SK-MES-1 | 0.891 | 0.889 | 0.771 | 0.903 | 0.862 | 0.814 | 0.854 | 0.733 | 1.1 | 0.601 | 0.907 | 0.939 | 0.807 | 0.881 | 0.674 | – | – | – | – | –
12 | SW 1573 | 0.879 | 1.01 | 0.946 | 0.65 | 0.739 | 0.727 | 0.431 | 0.219 | 0.197 | 0.243 | 0.248 | 0.162 | 0.195 | 0.136 | 0.175 | – | – | – | – | –
13 | UMC-11 | 1.05 | 0.87 | 1.01 | 0.939 | 0.784 | 0.963 | 0.78 | 1.09 | 1.06 | 0.829 | 0.202 | 0.202 | 0.214 | 0.194 | 0.202 | – | – | – | – | –
